Results on 1 compound are retold here after US20260373193A1, “CARCINOGENESIS REDUCTION WITH PENTAAZA MACROCYLIC RING COMPLEX” (GALERA LABS, LLC, priority 2023, published 2026).

For assay [1], the system named is kidney damage from cisplatin. As to conditions: cisplatin therapy for cancer; cited from earlier work.
In assay [2] the test system is ovarian masses or hemorrhagic cysts. Briefly: incidence of ovarian masses or hemorrhagic cysts at necropsy. To be noted: for # Ovary Masses/Cysts / % Yield (percentage of mice with ovarian masses or hemorrhagic cysts): GC4419 24 mg/kg i.p.; for occurrence of ovarian masses and hemorrhagic cysts vs untreated: final results (FIG. 4). The assay is classed as in vivo, mouse (female BALB/c). As for the experimental part: All animal studies conducted used female BALB/c mice irradiated at 77-91 days of age and housed for a lifetime study to determine rates of carcinogenesis and survival. Animals were purchased from Charles River Laboratory, shipped to Brookhaven National Laboratory, and irradiated with the doses and ion species described below.
Animals were treated or not with GC4419. Those animals treated with GC4419 followed the following strategy. GC4419 was delivered at a dose of 24 mg/kg (mice were weighed prior to drug delivery) interperitoneally (i.p.) at roughly 45-60 minutes prior to radiation exposure. GC4419 was then provided i.p. for the next 6 days, and the animals were shipped to UT Southwestern (UTSW) Medical Center for temporary quarantine before returning to the animal facility. Upon return to UTSW the animals were treated with GC4419 i.p. weekly for another 11 weeks for a total of 12 weeks on treatment.
Radiation exposures were whole body. The galactic cosmic ray (GCR) simulation exposures used the beam line at the NASA Space Radiation Laboratory at Brookhaven National Lab (BNL) and the γ-ray exposures used a ^137Cs source at BNL. Subsequent to single dose irradiation, animals were returned to their cages.
Galactic cosmic rays (GCR) are heavy ion radiation characteristic of the deep space environment, and the GCR simulation (GCRsim) at BNL mimics the complex radiation environment in space. The GCRsim ions used are described in Table 1 below.
Pathological endpoints were also considered. Specifically, lung cancer induction, or carcinogenesis, and other tumors that are evident in numbers large enough to consider as secondary endpoints. These endpoints are described in the following tables and figure. The term “masses” is used to describe an abnormal growth, evident by eye, within a given tissue; for example, the term “lung masses” is used to describe abnormal tissues found in the lung that are collected for pathologic examination.
Given prior experience with the mouse model of radiation-induced carcinogenesis, it is expected that most, if not all, of the lung masses are tumors. For the ovarian masses, some proportion of the masses are expected to be tumors. For observations of hepatosplenomegaly, many of the enlarged livers and spleens may not reflect tumors of those organs. These may, however, may be present as result of hematologic malignancies, such as leukemias, but that was not assessed in this experiment.
Table 3 presents the incidence of ovarian masses and hemorrhagic cysts observed at necropsy by treatment cohort, including preliminary data for certain γ-ray cohorts through approximately 600 days post-irradiation and for unirradiated animals treated with GC4419 (Control+GC4419) cohort through approximately 400 days post-irradiation. FIG. 4 presents final results for incidence of ovarian masses and hemorrhagic cysts.

For the compound `[Cl][Mn][Cl].c1cc2nc(c1)CN[C@H]1CCCC[C@@H]1NCCN[C@H]1CCCC[C@@H]1NC2` [GC4419], the “kidney damage from cisplatin” value in assay [1] is on record as “reduce kidney damage from cisplatin therapy”. Further, the “# Ovary Masses/Cysts” value in assay [2] (GCRsim 0.4 Gy, 224 mice) is given as 26; in assay [2] (GCRsim 0.75 Gy, 248 mice), 43; in assay [2] (unirradiated (0 Gy), 235 mice, preliminary, approx. 400 days), 0; in assay [2] (γ-ray 0.75 Gy, 248 mice, preliminary for certain γ-ray cohorts (approx. 600 days)), 22; in assay [2] (γ-ray 1.5 Gy, 248 mice, preliminary for certain γ-ray cohorts (approx. 600 days)), 24. In addition, the “% Yield (percentage of mice with ovarian masses or hemorrhagic cysts)” value in assay [2] (GCRsim 0.4 Gy, 224 mice, untreated pair 12.5) amounted to 11.6%; in assay [2] (GCRsim 0.75 Gy, 248 mice, untreated pair 24.2), 17.3%; in assay [2] (unirradiated (0 Gy), 235 mice, preliminary, approx. 400 days, untreated pair 10.6) it was 0.0%; in assay [2] (γ-ray 0.75 Gy, 248 mice, preliminary for certain γ-ray cohorts (approx. 600 days), untreated pair 28.9) it was 8.8%; in assay [2] (γ-ray 1.5 Gy, 248 mice, preliminary for certain γ-ray cohorts (approx. 600 days), untreated pair 21.7), 9.6%. Further, the “occurrence of ovarian masses and hemorrhagic cysts vs untreated” value in assay [2] (GCRsim 0.75 Gy) was “markedly decreased occurrence of ovarian masses and hemorrhagic cysts”; in assay [2] (unirradiated) it was “markedly decreased occurrence of ovarian masses and hemorrhagic cysts”; in assay [2] (γ-ray 0.75 Gy, statistically significant, p<0.05), “markedly decreased occurrence of ovarian masses and hemorrhagic cysts”.
